Six compounds from PubChem BioAssay (NCI) can be followed below.

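1) Cells in 96-well plates. 2) Compound, 48 h, 5 concentrations. 3) Linear interpolation between surrounding doses. 4) Unreached endpoint = highest concentration. Definition used: TGI = concentration required for complete inhibition of growth.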

Test systems include MDA-MB-231 breast; HS 578T breast; LOX IMVI melanoma; A549 NSCLC; M14 melanoma; A498 renal; HCT-15 colon; SF-268 CNS; SK-MEL-5 melanoma; K-562 leukemia; NCI-H226 lung; UACC-62 melanoma; SF-539 CNS; NCI-H23 lung; SR leukemia; TK-10 renal; OVCAR-3 ovarian; UACC-257 melanoma; COLO 205 colon; EKVX NSCLC.
Assay in all cases: NCI anticancer screen, dose series, 48 h

As to `COc1cccc2c1C1(O)C2CCCCCCCCCC12OCCCO2` (configuration not stated), the TGI with MDA-MB-231 breast is over 100 µM; in the assay with HS 578T breast, over 100 µM; with LOX IMVI melanoma, over 61.8 µM; in the assay on A549 NSCLC it was over 100 µM; in the assay with M14 melanoma, over 100 µM; with A498 renal it was over 100 µM. The TGI is over 100 µM with HCT-15 colon; over 100 µM in the assay with SF-268 CNS; over 100 µM in the assay on SK-MEL-5 melanoma; over 100 µM with K-562 leukemia; over 94.2 µM in the assay with NCI-H226 lung; over 100 µM with UACC-62 melanoma. The TGI is over 100 µM in the assay on SF-539 CNS; over 100 µM in the assay with NCI-H23 lung; 35.6 µM in the assay with SR leukemia; over 100 µM in the assay on TK-10 renal; over 81 µM in the assay with OVCAR-3 ovarian; over 100 µM with UACC-257 melanoma. The compound also came in with a TGI with COLO 205 colon of over 100 µM.
As for `O=[N+]([O-])C1=Cc2cc(Cl)ccc2OC1c1cccc2ccccc12` (configuration not stated), the TGI is 6.23 µM in the assay with MDA-MB-231 breast; 7.71 µM in the assay on HS 578T breast; 0.983 µM with LOX IMVI melanoma; 3.85 µM with A549 NSCLC; 3.66 µM with M14 melanoma; 3.9 µM in the assay with A498 renal. Also, the TGI in the assay with HCT-15 colon came out at 2.95 µM; with SF-268 CNS, 3.29 µM; in the assay with SK-MEL-5 melanoma it was 2.64 µM; in the assay on K-562 leukemia, 5.68 µM; in the assay on NCI-H226 lung, 4.42 µM; in the assay with UACC-62 melanoma it was 4.97 µM. Besides, the TGI with NCI-H23 lung was 5.46 µM; in the assay on EKVX NSCLC it was 2.81 µM; with SR leukemia, 2.07 µM; in the assay on TK-10 renal, 2.55 µM; with OVCAR-3 ovarian, 2.95 µM; in the assay on UACC-257 melanoma, 3.4 µM. This compound showed a TGI with COLO 205 colon of 6.71 µM.
As for `CN(C)CCCNc1ccc2nnn3c4ccc(OC(=O)c5ccccc5)cc4c(=O)c1c23`, the TGI amounted to 27.3 µM with MDA-MB-231 breast; 36.6 µM in the assay with HS 578T breast; 15.2 µM with LOX IMVI melanoma; 23.7 µM in the assay with A549 NSCLC; 28.3 µM in the assay with M14 melanoma; 25.4 µM in the assay with A498 renal. In addition, the TGI in the assay on HCT-15 colon came out at 33.7 µM; in the assay on SF-268 CNS, 25.6 µM; with K-562 leukemia, 4.49 µM; with UACC-62 melanoma, 29.6 µM; with SF-539 CNS, 22.7 µM; in the assay on NCI-H23 lung, 32.2 µM. Also, the TGI in the assay on EKVX NSCLC amounted to 20.2 µM; in the assay with SR leukemia, 2.61 µM; with TK-10 renal, 24.3 µM; in the assay on OVCAR-3 ovarian, 24.9 µM; in the assay with UACC-257 melanoma, 34.3 µM; in the assay on COLO 205 colon, 28.9 µM.
As for `Cc1c2n(c3ccccc13)S(=O)(=O)c1ccccc1-2`, the TGI in the assay with MDA-MB-231 breast is 39.4 µM; in the assay on HS 578T breast, 54.8 µM; in the assay with LOX IMVI melanoma it was over 100 µM; in the assay with A549 NSCLC, over 100 µM; in the assay with M14 melanoma, over 100 µM; in the assay with A498 renal it was 27.4 µM. Also, the TGI in the assay with HCT-15 colon, with SK-MEL-5 melanoma, in the assay with K-562 leukemia, in the assay on NCI-H226 lung, in the assay on UACC-62 melanoma and in the assay with NCI-H23 lung was over 100 µM throughout. The TGI with EKVX NSCLC was 35.6 µM; in the assay with SR leukemia, over 100 µM; with TK-10 renal, 58.2 µM; with OVCAR-3 ovarian, over 100 µM; with UACC-257 melanoma, over 100 µM; with COLO 205 colon, over 100 µM.
`CC(=O)NC1C(OC(C)C(=O)NC(C(=O)NC(CCC(=O)NCCCNC2c3ccccc3Nc3cccc([N+](=O)[O-])c32)C(N)=O)C(C)C)C(O)C(CO)OC1(C)OCc1ccccc1` (configuration not stated): the TGI in the assay on MDA-MB-231 breast worked out at 3.02 µM; in the assay on HS 578T breast, 4.75 µM; with LOX IMVI melanoma, 4.6 µM; in the assay on A549 NSCLC, 1.94 µM; in the assay with M14 melanoma it was 12.2 µM; in the assay on A498 renal, 4.11 µM. Further, the TGI came out at 1.97 µM in the assay with HCT-15 colon; 3.3 µM in the assay on SF-268 CNS; 0.405 µM in the assay on SK-MEL-5 melanoma; 7.65 µM with K-562 leukemia; 2.95 µM in the assay with NCI-H226 lung; 2.1 µM in the assay with UACC-62 melanoma. For the same compound, the TGI in the assay with NCI-H23 lung came to 3.3 µM; in the assay on EKVX NSCLC it was 3.43 µM; in the assay with SR leukemia it was 0.634 µM; in the assay on TK-10 renal, 0.695 µM; in the assay with OVCAR-3 ovarian it was 2.85 µM; in the assay with UACC-257 melanoma, 5.14 µM. For the same compound, the TGI in the assay with COLO 205 colon came to 7.77 µM.
Regarding `O=C(O)C1OC1C(=O)O` (configuration not stated), the TGI with MDA-MB-231 breast, in the assay with HS 578T breast, in the assay with LOX IMVI melanoma, in the assay on A549 NSCLC, with M14 melanoma and with A498 renal was over 100 µM each time. The TGI in the assay on HCT-15 colon, in the assay with SF-268 CNS, in the assay with SK-MEL-5 melanoma, in the assay on K-562 leukemia, with NCI-H226 lung and in the assay with UACC-62 melanoma was over 100 µM in each case. Also, the TGI in the assay with NCI-H23 lung, in the assay with EKVX NSCLC, in the assay on SR leukemia, in the assay on TK-10 renal, in the assay with OVCAR-3 ovarian and in the assay on UACC-257 melanoma was over 100 µM throughout. Also, in the assay with COLO 205 colon, the TGI was over 100 µM.
